Measured values taken from patent publication US6596719B1 (Actelio Pharmaceuticals Ltd., priority 1999, dated 2003).
Where two headings read alike, the source gives them in different places.

Tests used:
[1] = target: T1, human recombinant ETB receptors (Homo sapiens, UniProt P24530); experiment: Inhibition of endothelin binding to membranes from CHO cells carrying human ET receptors (ETB)
T1 construct: expressed in transfected cells; host or cells: CHO cells (microsomal membranes)
T1 sequence (P24530 27-442): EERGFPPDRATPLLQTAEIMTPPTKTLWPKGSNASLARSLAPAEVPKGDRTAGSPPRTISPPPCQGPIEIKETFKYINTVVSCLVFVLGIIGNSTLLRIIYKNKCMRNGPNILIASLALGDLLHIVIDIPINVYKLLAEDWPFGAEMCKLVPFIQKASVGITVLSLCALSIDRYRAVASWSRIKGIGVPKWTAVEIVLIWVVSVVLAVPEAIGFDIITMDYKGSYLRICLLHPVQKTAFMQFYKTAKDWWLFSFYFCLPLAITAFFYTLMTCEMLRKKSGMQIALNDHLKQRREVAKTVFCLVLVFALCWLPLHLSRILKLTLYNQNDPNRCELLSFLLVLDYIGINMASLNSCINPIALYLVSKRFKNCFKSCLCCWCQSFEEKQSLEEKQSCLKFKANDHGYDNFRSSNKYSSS
Method: 1) Inhibition of Endothelin Binding to Membranes from CHO Cells Carrying Human ET Receptors:
For competition binding studies, membranes of CHO cells expressing human recombinant ETA or ETB receptors were used. Microsomal membranes from recombinant CHO cells were prepared and the binding assay made as previously described (Breu V., et al, FEBS Lett 1993; 334:210).
The assay was performed in 200 uL 50 mM Tris/HCl buffer, pH 7.4, including 25 mM MnCl2, 1 mM EDTA and 0.5% (w/v) BSA in polypropylene microtiter plates. […]. […] After two h, the membranes were filtered on, filterplates containing GF/C filters (Unifilterplates from Canberra Packard S. A. Zürich, Switzerland). To each well, 50 uL of scintillation cocktail was added (MicroScint 20, Canberra Packard S. A. Zürich, Switzerland) and the filter plates counted in a microplate counter (TopCount, Canberra Packard S. A. Zürich, Switzerland).
All the test compounds were dissolved, diluted and added in DMSO. […] […].

[2] = target: T2, human recombinant ETA receptors (Homo sapiens, UniProt P25101); experiment: Inhibition of endothelin binding to membranes from CHO cells carrying human ET receptors (ETA)
T2 construct: expressed in transfected cells; host or cells: CHO cells (microsomal membranes)
T2 sequence (P25101 21-427): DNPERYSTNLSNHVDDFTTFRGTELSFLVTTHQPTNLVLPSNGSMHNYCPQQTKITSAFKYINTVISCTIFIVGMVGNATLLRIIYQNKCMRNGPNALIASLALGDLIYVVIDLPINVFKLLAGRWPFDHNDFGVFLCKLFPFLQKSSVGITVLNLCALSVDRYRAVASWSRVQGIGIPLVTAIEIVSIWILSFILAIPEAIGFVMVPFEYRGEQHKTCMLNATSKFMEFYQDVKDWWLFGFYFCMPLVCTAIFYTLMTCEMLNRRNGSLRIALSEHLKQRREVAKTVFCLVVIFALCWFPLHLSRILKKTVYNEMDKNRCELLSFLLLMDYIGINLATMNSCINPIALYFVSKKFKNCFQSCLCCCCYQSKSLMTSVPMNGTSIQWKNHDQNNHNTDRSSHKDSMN

[3] = membranes of CHO cells expressing human recombinant ETB receptors, 8 pM [125I]ET-1, 2 h at 20° C.
[4] = membranes of CHO cells expressing human recombinant ETA receptors, 8 pM [125I]ET-1, 2 h at 20° C.

Compound | IC50 [1, 3] | IC50 [2, 4] | IC50 [1] | IC50 [2]
5-i-propyl-N-[6-(2-ethanesulfonylamino-ethoxy)-5-(o-methoxyphenoxy)-2-cyclopropyl-pyrimidin-4-yl]-pyridine-2-sulfonamide [Example 38] | 0.084 µM | 0.08 µM |  | 
5-isopropyl-N-[6-(2-(1-propanesulfonylamino)-ethoxy)-5-(o-methoxyphenoxy)-2-(2-pyridyl)-4-pyrimidinyl]-2-pyridine sulfonamide [Example 72] | 0.279 µM | 0.153 µM |  | 
COc1ccccc1Oc1c(NS(=O)(=O)c2ccc(C(C)(C)C)cc2)nc(-c2ncccn2)nc1OCCNS(=O)(=O)C(F)(F)F [Example 5, p-tert.-butyl-N-[6-(ethoxy-2-trifluoromethanesulfonamido)-5-(o-methoxyphenoxy)-2-(2-pyrimidinyl)-4-pyrimidinyl]benzene-sulfonamide] |  |  | 0.356 µM | 5.56 µM
COc1ccccc1Oc1c(NS(=O)(=O)c2ccc(C(C)(C)C)cc2)nc(-c2ncccn2)nc1OCCNS(=O)(=O)c1ccc(C)cc1 [Example 6, p-tert.-butyl-N-[6-(ethoxy-2-p-toluenesulfonamido)-5-(o-methoxyphenoxy)-2-(2-pyrimidinyl)-4-pyrimidinyl]benzene-sulfonamide] | 0.42 µM | 8.3 µM |  | 
CCS(=O)(=O)NCCOc1nc(-c2ncccn2)nc(NS(=O)(=O)c2ccc(C(C)(C)C)cc2)c1Oc1ccccc1OC [Example 8, p-tert.-butyl-N-[6-(ethoxy-2-ethanesulfonamido)-5-(o-methoxyphenoxy)-2-(2-pyrimidinyl)-4-pyrimidinyl]benzene-sulfonamide] | 0.13 µM | 0.16 µM |  | 
CCCCS(=O)(=O)NCCOc1nc(-c2ncccn2)nc(NS(=O)(=O)c2ccc(C(C)(C)C)cc2)c1Oc1ccccc1OC [Example 17, p-tert.-butyl-N-[6-(ethoxy-2-(1-butanesulfonamido))-5-(o-methoxyphenoxy)-2-(2-pyrimidinyl)-4-pyrimidinyl]benzene-sulfonamide] |  |  | 0.117 µM | 1.1 µM
COc1ccccc1Oc1c(NS(=O)(=O)c2ccc(C(C)C)cn2)nc(-c2cc(OC)c(OC)c(OC)c2)nc1OCCNS(=O)(=O)C(C)C [Example 18] |  |  | 1.05 µM | 0.209 µM
COc1ccccc1Oc1c(NS(=O)(=O)c2ccc(C(C)(C)C)cc2)ncnc1OCCNS(=O)(=O)c1ccc(Br)cc1 [Example 27, 4-tert.-butyl-N-{6-[2-(4-bromobenzenesulfonyl-amino)-ethoxy]-5-(o-methoxy-phenoxy)-pyrimidin-4-yl}-benzenesulfonamide] |  |  | 0.995 µM | 3.63 µM
COc1ccccc1Oc1c(NS(=O)(=O)c2ccc(C(C)(C)C)cc2)ncnc1OCCNS(=O)(=O)c1ccc(C)cc1 [Example 28, 4-tert.-butyl-N-{6-[2-(4-methylbenzenesulfonyl-amino)-ethoxy]-5-(o-methoxy-phenoxy)-pydmidin-4-yl}-benzenesulfonamide] |  |  | 1.04 µM | 3.71 µM
CCCS(=O)(=O)NCCOc1ncnc(NS(=O)(=O)c2ccc(C(C)(C)C)cc2)c1Oc1ccccc1OC [Example 30, 4-tert.-butyl-N-{6-[2-(1-propanesulfonyl-amino)-ethoxy]-5-(o-methoxy-phenoxy)-pyrimidin-4-yl}-benzenesulfonamide] |  |  | 0.288 µM | 0.484 µM
CCS(=O)(=O)NCCOc1ncnc(NS(=O)(=O)c2ccc(C(C)(C)C)cc2)c1Oc1ccccc1OC [Example 31, 4-tert.-butyl-N-{6-[2-(ethanesulfonylamino)-ethoxy]-5-(o-methoxy-phenoxy)-pydmidin-4-yl}-benzenesulfonamide] |  |  | 0.735 µM | 0.409 µM
CCS(=O)(=O)NCCOc1nc(SC)nc(NS(=O)(=O)c2ccc(C(C)(C)C)cc2)c1Oc1ccccc1OC [Example 36f, 4-tert.-butyl-N-[6-(2-ethanesulfonylamino-ethoxy)-5-(o-methoxyphenoxy)-2-methylsulfanyl-pyrimidin-4-yl]-benzenesulfonamide] |  |  | 1.21 µM | 0.478 µM
CCS(=O)(=O)NCCOc1nc(S(C)(=O)=O)nc(NS(=O)(=O)c2ccc(C(C)(C)C)cc2)c1Oc1ccccc1OC [Example 36g] |  |  | 0.093 µM | 0.121 µM
COc1ccccc1Oc1c(NS(=O)(=O)c2ccc(C(C)(C)C)cc2)nc(SC)nc1OCCNS(=O)(=O)c1ccc(C)cc1 [Example 37, 4-tert.-butyl-N-[6-(2-p-toluenesulfonylamino-ethoxy)-5-(o-methoxyphenoxy)-2-methylsulfanyl-pyrimidin-4-yl]-benzenesulfonamide] |  |  | 0.604 µM | 5.68 µM
COc1ccccc1Oc1c(NS(=O)(=O)c2ccc(C(C)(C)C)cc2)nc(C2CC2)nc1OCCNS(=O)(=O)C(C)C [Example 40, 4-tert.-butyl-N-[6-(2-(2-propane)-sulfonylamino-ethoxy)-5-(o-methoxyphenoxy)-2-cyclopropyl-pyrimidin-4-yl]-benzene-sulfonamide] |  |  | 0.087 µM | 0.076 µM

Further lines, results first:

IC50 [1, 3] | IC50 [2, 4] | IC50 [1] | IC50 [2] | Compound
 |  | 0.451 µM | 0.518 µM | COc1ccccc1Oc1c(NS(=O)(=O)c2ccc(C(C)C)cn2)nc(-c2ccncc2)nc1OCCNS(C)(=O)=O [Example 14, 5-i.-propyl-N-[6-(ethoxy-2-methanesulfonamido)-5-(o-methoxyphenoxy)-2-(4-pyridyl)-4-pyrimidinyl]pyridine-2-sulfonamide]
 |  | 0.0218 µM | 0.881 µM | COc1ccccc1Oc1c(NS(=O)(=O)c2ccc(C(C)C)cn2)nc(C)nc1OCCNS(=O)(=O)c1ccc(C)cc1 [Example 21, 5-i.-propyl-N-[6-(ethoxy-2-p-toluenesulfonamido)-5-(o-methoxyphenoxy)-2-methyl-4-pyrmidinyl]pyridine-2-sulfonamide]
 |  | 0.0527 µM | 0.0761 µM | COc1ccccc1Oc1c(NS(=O)(=O)c2ccc(C(C)C)cn2)nc(C)nc1OCCNS(C)(=O)=O [Example 23, 5-i.-propyl-N-[6-(ethoxy-2-methanesulfonamido)-5-(o-methoxyphenoxy)-2-methyl-4-pyrimidinyl]pyridine-2-sulfonamide]
 |  | 0.235 µM | 1.25 µM | COc1ccccc1Oc1c(NS(=O)(=O)c2ccc(C(C)(C)C)cc2)ncnc1OCCNS(=O)(=O)c1cccs1 [Example 29, 4-tert.-butyl-N-{6-[2-(2-thiophenesulfonyl-amino)-ethoxy]-5-(o-methoxy-phenoxy)-pydmidin-4-yl}-benzenesulfonamide]
0.081 µM | 1.05 µM |  |  | COc1ccccc1Oc1c(NS(=O)(=O)c2ccc(C(C)C)cn2)nc(C2CC2)nc1OCCNS(=O)(=O)c1ccc(C)cc1 [Example 39, 5-i-propyl-N-[6-(2-(4-methylbenzene)-sulfonylamino-ethoxy)-5-(o-methoxyphenoxy)-2-cyclopropyl-pyrimidin-4-yl]-pyridine-2-sulfonamide]
0.299 µM | 4.9 µM |  |  | COc1ccccc1Oc1c(NS(=O)(=O)c2ccc(C(C)(C)C)cc2)nc(C2CC2)nc1OCCNS(=O)(=O)c1ccc(C)cc1 [Example 41]
0.099 µM | 0.587 µM |  |  | COc1ccccc1Oc1c(NS(=O)(=O)c2ccc(C(C)C)cn2)nc(N2CCOCC2)nc1OCCNS(=O)(=O)c1cccs1 [Example 42, 5-isopropyl-N-[6-(2-(2-thiophensulfonyl)-amino-ethoxy)-5-(o-methoxyphenoxy)-2-(N-morpholino)-4-pyrimidinyl]-2-pyridine sulfonamide]
0.447 µM |  |  |  | COc1ccccc1Oc1c(NS(=O)(=O)c2ccc(C)cn2)nc(N2CCOCC2)nc1OCCNS(=O)(=O)c1cccs1 [Example 58, 5-methyl-N-[6-(2-(thiophene-2-sulfonylamino)-ethoxy)-5-(o-methoxyphenoxy)-2-(N-morpholino)-4-pyrimidinyl]-2-pyridine sulfonamide]
 |  | 0.0041 µM |  | COc1ccccc1Oc1c(NS(=O)(=O)c2ccc(C(C)(C)C)cc2)nc(-c2ncccn2)nc1OCCCNS(=O)(=O)c1cccs1 [Example 90, 4-tert.-butyl-N-[6-(3-(2-thiophenesulfonylamino)-propoxy)-5-(o-methoxyphenoxy)-2-pyrimidinyl-4-pyrimidinyl]-benzene-sulfonamide]
